Assay results reported in the supplement of paper PMC10307832.

How the values were obtained:
Assay in all cases: relative viability (nuclei count vs DMSO), 5 days (fraction); higher = more cells survive
Sulindac + Phenformin = compound: CC1=C(CC(=O)O)c2cc(F)ccc2/C1=C\c1ccc([S+](C)[O-])cc1 [Sulindac] + N=C(N)NC(=N)NCCc1ccccc1 [Phenformin] (partner 250 µM)
Summary of the method: (§1)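 Relative viability divides the nuclei count in treated wells by that in vehicle wells. Lung cancer cell lines were seeded in 1536-well plates, dosed by pin tool the next day, and fixed and stained after 5 days in one step with final 0.05% Triton X-100, 1% formaldehyde and 1 ug/ml Hoechst. Dosing was a single drug or a fixed anchor-drug dose plus five library-drug doses (not always all listed) in √10 steps, and values are medians of duplicate plates imaged at 4×.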

[1] = compound: CN[C@@H]1C[C@H]2O[C@@](C)([C@@H]1OC)n1c3ccccc3c3c4c(c5c6ccccc6n2c5c31)C(=O)NC4 [Staurosporine] + CS(=O)(=O)N1CCN(Cc2cc3nc(-c4cccc5[nH]ncc45)nc(N4CCOCC4)c3s2)CC1 [Pictilisib] (partner 1 µM)
Summary of the method: as §1

Sulindac + Tozasertib = compound: CC1=C(CC(=O)O)c2cc(F)ccc2/C1=C\c1ccc([S+](C)[O-])cc1 [Sulindac] + Cc1cc(Nc2cc(N3CCN(C)CC3)nc(Sc3ccc(NC(=O)C4CC4)cc3)n2)n[nH]1 [Tozasertib] (partner 0.1 µM)
Summary of the method: as §1

Sulindac + OSI-027 = compound: CC1=C(CC(=O)O)c2cc(F)ccc2/C1=C\c1ccc([S+](C)[O-])cc1 [Sulindac] + COc1cccc2cc(-c3nc([C@H]4CC[C@H](C(=O)O)CC4)n4ncnc(N)c34)[nH]c12 [OSI-027] (partner 0.5 µM)
Summary of the method: as §1

Cell Line UMC-11 has a relative viability (Sulindac + Phenformin; first compound 0.08 µM) of 0.359, a relative viability (Sulindac + Phenformin; first compound 0.253 µM) of 0.352 and a relative viability (Sulindac + Phenformin; first compound 0.8 µM) of 0.284. It also gave a relative viability (Sulindac + Phenformin; first compound 2.53 µM) of 0.323, a relative viability (Sulindac + Phenformin; first compound 8 µM) of 0.396 and a relative viability ([1]; first compound 0.005 µM) of 0.841. For the same cell line, the relative viability ([1]; first compound 0.01581 µM) was 0.115, the relative viability ([1]; first compound 0.05 µM) was 0.207 and the relative viability ([1]; first compound 0.1581 µM) was 0.101. It also gave a relative viability ([1]; first compound 0.5 µM) of 0.0718, a relative viability (Sulindac + Tozasertib; first compound 0.08 µM) of 0.204 and a relative viability (Sulindac + Tozasertib; first compound 0.253 µM) of 0.192. For the same cell line, the relative viability (Sulindac + Tozasertib; first compound 0.8 µM) was 0.228, the relative viability (Sulindac + Tozasertib; first compound 2.53 µM) was 0.2 and the relative viability (Sulindac + Tozasertib; first compound 8 µM) was 0.204. For the same cell line, the relative viability (Sulindac + OSI-027; first compound 0.08 µM) was 0.624, the relative viability (Sulindac + OSI-027; first compound 0.253 µM) was 0.502 and the relative viability (Sulindac + OSI-027; first compound 0.8 µM) was 0.371. The relative viability (Sulindac + OSI-027; first compound 2.53 µM) was 0.543 and the relative viability (Sulindac + OSI-027; first compound 8 µM) was 0.487.
